Test system: Dictyostelium cells
Test: Development of Dictyostelium cells in the presence of AFC (time-lapse imaging, FIG. 7)
Format: cell-based
Text: Accordingly, some embodiments of the present invention are directed to assays testing the effects of AFC on Dictyostelium cells.

CC(=O)N[C@@H](CSC/C=C(\C)CC/C=C(\C)CCC=C(C)C)C(=O)O [AFC, N-acetyl-farnsyl cysteine]
ability of the cells to form fruiting bodies (Dictyostelium cells treated with AFC): inhibited
mechanism by which individual cells aggregate into multicellular clusters (head-to-tail streaming while migrating) (compared with untreated cells, which line up head-to-tail and form streams, FIG. 7, 6.5, 8.5 and 9.25 hours): migrate, but do not line up head-to-tail

Reference: US20100056391A1, “INTEGRATED SCREENING ASSAYS AND METHODS OF USE” (Trustees of Princeton University, priority 2006, published 2010)
